Laboratory results reported in paper PMC11613437, “Prioritization of Eleven-Nineteen-Leukemia Inhibitors as Orally Available Drug Candidates for Acute Myeloid Leukemia” (Journal of Medicinal Chemistry, 2024).

Key:
[1] = Log D at pH 7.4 (chromatographic procedure); type: physicochemical; details: n-octanol / aqueous buffer pH 7.4, pH 7.4
Procedure: Log D at 7.4, which is a partition coefficient between n-octanol and aqueous buffer pH 7.4 of the compounds was measured on the chromatographic procedure whose condition was developed based on a published method.[35]

[2] = Cell toxicity assay (CCK-8), Jurkat; type: cell-based; details: human, Jurkat cells; for IC50 at 8 days: 8 day treatment, n = 3, read-out: CC50 Jurkat (Cellular IC50, 8-days incubation)
Procedure: (§1) Approximately 1 × 10^4 JURKAT, MOLM-13, MV4-11 and HEK293T cells in RPMI 1640 (no phenol red) (100 μL) were added to a 96-well plate and treated with DMSO or a compound at indicated concentrations for 72 h or 8 days. Cell viability was measured using the CCK-8 kit (Abcam, ab228554) according to the manufacturer’s instructions.

NLuc-ENL YEATS = target: T1, NLuc-ENL YEATS (Homo sapiens, UniProt Q03111); test: ENL-NanoBRET inhibitor competitive assay; type: cell-based; details: HEK293T cells stably expressing NLuc-ENL YEATS, 1 μM Tracer 2, 2 h; mean ± SD, n = 3
T1 construct: DNA encoding the ENL YEATS domain (aa 1–148) was cloned into an NLuc containing plasmid; expressed in transfected cells
T1 sequence (Q03111 1-148): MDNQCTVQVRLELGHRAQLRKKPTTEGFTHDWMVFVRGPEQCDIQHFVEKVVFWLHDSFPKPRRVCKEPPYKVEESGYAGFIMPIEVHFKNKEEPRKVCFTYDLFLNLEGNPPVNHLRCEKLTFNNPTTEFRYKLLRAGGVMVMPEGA
Procedure: Approximately 1.8 × 10^4 HEK293T cells (100 μL) stably expressing NLuc-ENL YEATS were seeded into a white nonbinding 96-well assay plate and incubated overnight at 37 °C in a humidified 5% CO2 atmosphere. After removal of the medium, the cells were added with a tracer (with or without excess of unlabeled compound) in the Opti-MEM with 0.1% DMSO. After incubation at 37 °C for 2 h the assay plate was equilibrated at room temperature for 15 min. For BRET detection, the NanoGlo Substrate and the extracellular NanoLuc inhibitor (Promega, N2160) were diluted with Opti-MEM as described in protocol to afford detection solution. 50 μL of the detection solution was added per well and the plate was incubated for 3 min at room temperature. The donor emission was measured at 450 nm and the acceptor emission at 610 nm using a BioTek SYNERGY neo2 multimode reader. The BRET ratio was calculated according to the following formula: BRET ratio = [(acceptorsample/donorsample) – (acceptorno-tracer control/donorno-tracer control)] × 1000.
Sample procedures were followed for cell seeding as described in the previously described tracer affinity assay. After removal of the medium, the cells were added with a tracer in the medium (1.1 μM, 100 μL) and varied concentrations of a test compound in 0.1% DMSO (10 μL). The plate was thoroughly mixed on an orbital shaker for 15 s at 900 rpm. Then the cells were incubated at 37 °C, 5% CO2 for 2 h for BRET ratio detection as described previously.

[3] = system: HOXA9, HOXA10, MEIS1, MYB and MYC; test: qRT-PCR of ENL target genes; type: cell-based; details: MOLM-13 and MV4-11 cells, 72 h, concentrations as low as 1.0 μM
Procedure: Total RNA was extracted using the RNeasy plus kit (Qiagen, 74034) and reverse-transcribed using an iScript cDNA synthesis kit (Bio-Rad, 1708890). Quantitative real-time PCR (qRT-PCR) analyses were performed as described previously using PowerUp SYBR Green PCR Master Mix (Thermo Fisher, A25742) and the Bio-Rad CFX96 real-time PCR detection system. Gene expressions were calculated following normalization to β2-microglobulin (B2M) levels using the comparative Ct (cycle threshold) method. The primer pairs are as follows. HOXA9: forward 5′-GTATAG-[…]-3′, reverse 5′-[…]-3′. MEIS1: forward 5′-[…]-3′, reverse 5′ […]-AGCAAG-3′. MYB: forward 5′-[…]-3′, reverse 5′-[…]-3′, MYC: forward 5′-[…]-AGGT-3′, reverse 5′-TTT-[…]-3′. B2M: forward 5′-[…]-3′ reverse 5′-[…]-3′.

MOLM-13-Luc cells = test: Antitumor analysis in MOLM-13-Luc xenografted NSG mice; type: in vivo
Excerpt: Animal studies were approved by the Texas A&M’s Institutional Animal Care and Use Committees. The 5 week-old female NSG mice (NOD.Cg-PrkdcscidIl2rgtm1Wjl/SzJ, Jackson Laboratory #005557) were ordered and kept under pathogen-free conditions for 1 week with free access to food and water after arrival for acclimation. Tumor models in these mice were then built by engrafting 1 × 10^6 MOLM-13-Luc cells (BPS Bioscience, 78372) through tail vein injection. Tumors were allowed to grow for 6 days, and then applied for treatment by oral gavage daily (day 0 was the beginning of treatment). Dosage of 200 or 400 mg/kg (vehicle of 5% DMSO, 45% PEG400, 2.5% Tween 80, and 47.5% water) was applied. Tumor growth was evaluated by bioluminescent imaging (BLI) using an IVIS In Vivo Imaging System by intraperitoneal injection of 150 mg/kg D-Luciferin potassium salt (MedChemExpress, HY-12591B). Their body weights were recorded every 2–3 days. Surviving mice were counted every day and the mortality was calculated. No animal was excluded from any of the analyses. The investigators were not blinded to allocation during experiments and outcome assessment.

[4] = Cell toxicity assay (CCK-8), HEK293T; type: cell-based; details: human, HEK293T cells; 72 h (3-days) treatment, n = 3; read-out: CC50 HEK293T (Cellular IC50, 3-days incubation)
Procedure: as §1

ENL YEATS = target: T2, ENL YEATS (Homo sapiens, UniProt Q03111); test: AlphaScreen assay with biotinylated ENL-S1 peptide; details: inhibition of ENL YEATS binding to ENL-S1 peptide; mean ± SD, n = 3; read-out: Alpha IC50 (nM) for ENL YEATS
T2 construct: final concentrations of 100 nM His-ENL YEATS, 100 nM Biotin-ENL-S1
T2 sequence (Q03111 1-138 limits assumed): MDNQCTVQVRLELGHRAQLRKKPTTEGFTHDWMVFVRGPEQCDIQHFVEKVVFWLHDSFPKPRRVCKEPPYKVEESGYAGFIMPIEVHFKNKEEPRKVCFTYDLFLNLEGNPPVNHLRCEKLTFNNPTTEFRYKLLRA
Procedure: The AlphaScreen assay was carried out in 384-well plates. Manual assay setup was performed in a 40 μL reaction buffer (50 mM HEPES pH 7.4, 100 mM NaCl, 0.1% bovine serum albumin, and 0.05% CHAPS) with final concentrations of 100 nM His-ENL YEATS, 100 nM Biotin-ENL-S1, and 20 μg/mL of AlphaScreen donor and acceptor beads. The protein, peptide, and compounds were mixed and incubated for 1 h at room temperature and then incubated for 30 min in dark after adding the α beads. AlphaScreen-signals were detected by a multimode microplate reader (BioTeK Synergy Neo2) equipped with an Alpha-laser (PerkinElmer).

**Q.** With `CC(C)C1CCN1Cc1ccc(CNC(=O)c2ccc3nncn3c2)cc1` (centres unmarked) [inhibitor 13] as the compound, how does the chromatographic logD [1] read?
**A.** 0.31

**Q.** And the CC50 at 72 h ([2]; 72 h treatment (superscript a))?
**A.** > 64 µM

**Q.** And the IC50 at 8 days [2]?
**A.** 22 ± 1.79 µM

**Q.** What about the IC50 (NLuc-ENL YEATS) of the same compound?
**A.** 4.29 µM

**Q.** And the “expression of ENL target genes” value [3]?
**A.** effectively suppress the expression of these genes

**Q.** What about the tumor reduction (MOLM-13-Luc cells; 200 mg/kg PO QD) of the same compound?
**A.** no noticeable tumor reduction

**Q.** And the “increase in median survival” value (MOLM-13-Luc cells; 400 mg/kg PO QD vs control)?
**A.** 33.3%

**Q.** What about the “tumor growth inhibition (TGI)” value (MOLM-13-Luc cells; 400 mg/kg PO QD, after 13 days of treatment, vs control) of the same compound?
**A.** ~45%

**Q.** And the median survival (MOLM-13-Luc cells; 400 mg/kg PO QD, control 15)?
**A.** 20 post-treatment days

**Q.** What about the IC50 at 72 h [4] of the same compound?
**A.** > 64 µM

**Q.** And the IC50 (ENL YEATS)?
**A.** 1260 ± 128 nM

**Q.** With `CC(C)[C@H]1CCN1Cc1cc2cnc(NC(=O)c3ccc4nncn4c3)cc2[nH]1` [SR-C-107 (R), (R)-N-(2-((2-Isopropylazetidin-1-yl)methyl)-1H-pyrrolo[3,2-c]pyridin-6-yl)-[1,2,4]triazolo[4,3-a]pyridine-6-carboxamide] as the compound, how does the chromatographic logD [1] read?
**A.** 0.97

**Q.** And the IC50 at 8 days [2]?
**A.** > 64 µM

**Q.** And the IC50 (NLuc-ENL YEATS)?
**A.** 0.59 µM

**Q.** And the “expression of ENL target genes” value [3]?
**A.** effectively suppress the expression of these genes

**Q.** And the “tumor growth inhibition (TGI)” value (MOLM-13-Luc cells; 200 mg/kg PO QD, after 8 days of treatment)?
**A.** 49.5%

**Q.** What about the “tumor growth inhibition (TGI)” value (MOLM-13-Luc cells; 200 mg/kg PO QD, day 12) of the same compound?
**A.** 45%

**Q.** What about the median survival time (MOLM-13-Luc cells; 200 mg/kg PO QD, vehicle 10) of the same compound?
**A.** 15 days post-treatment

**Q.** What about the IC50 at 72 h [4] of the same compound?
**A.** > 64 µM

**Q.** What about the IC50 (ENL YEATS) of the same compound?
**A.** 40 nM
